Counter-ions that a name gives are not always drawn.

Chain of human neurokinin-1-receptor (NK1R) (P25103 whole entry): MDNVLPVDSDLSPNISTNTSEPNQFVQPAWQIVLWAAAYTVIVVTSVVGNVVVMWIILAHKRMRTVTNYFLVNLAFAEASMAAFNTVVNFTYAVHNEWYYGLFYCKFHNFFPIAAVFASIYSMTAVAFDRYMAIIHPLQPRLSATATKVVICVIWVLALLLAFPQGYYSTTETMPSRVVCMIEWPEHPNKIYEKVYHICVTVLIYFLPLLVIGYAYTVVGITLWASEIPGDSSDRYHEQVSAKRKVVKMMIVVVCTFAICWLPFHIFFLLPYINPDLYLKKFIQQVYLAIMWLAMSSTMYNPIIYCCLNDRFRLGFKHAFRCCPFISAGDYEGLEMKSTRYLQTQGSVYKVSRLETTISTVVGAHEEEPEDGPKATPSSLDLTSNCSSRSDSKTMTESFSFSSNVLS

One assay concerns the target human neurokinin-1-receptor (NK1R) (Homo sapiens, UniProt P25103). Put plainly: biochemical. Particulars: 125I-SP binding; cloned human NK1R expressed in COS or CHO; 1 hour at 4° C. or room temperature.
Method: To express the cloned human neurokinin-1-receptor (NK1R) transiently in COS, the cDNA for the human NK1R was cloned into the expression vector pCDM9 which was derived from pCDM8 (INVITROGEN) by inserting the ampicillin resistance gene (nucleotide 1973 to 2964 from BLUESCRIPT SK+ (trademark, [sequence], La Jolla, Calif., USA)) into the Sac II site. Transfection of 20 ug of the plasmid DNA into 10 million COS cells was achieved by electroporation in 800 μl of transfection buffer (135 mM NaCl, 1.2 mM CaCl2, 1.2 mM MgCl2, 2.4 mM K2 HPO4, 0.6 mM KH2 PO4, 10 mM glucose, 10 mM N-2-hydroxyethyl-piperazine-N'-2-ethane sulphonic acid (HEPES) pH 7.4) at 260 V and 950 μF using the IBI GENEZAPPER (trademark IBI, New Haven, Conn., USA). The cells were incubated in 10% fetal calf serum, 2 mM glutamine, 100 U/ml penicillin-streptomycin, and 90% DMEM media (GIBCO, Grand Island, N.Y., USA) in 5% CO2 at 37° C. for three days before the binding assay.
The binding assay of human NK1R expressed in either COS or CHO cells is based on the use of ^125 I-substance P (^125 I-SP from DU PONT, Boston, Mass.) as a radioactively labeled ligand which competes with unlabeled substance P or any other ligand for binding to the human NK1R. […] In the binding assay, 200 μl of cells were added to a tube containing 20 μl of 1.5 to 2.5 nM of ^125 I-SP and 20 μl of unlabeled substance P or any other test compound. The tubes were incubated at 4° C. or at room temperature for 1 hour with gentle shaking. The bound radioactivity was separated from unbound radioactivity by GF/C filter (BRANDEL, Gaithersburg, Md.) which was pre-wetted with 0.1% polyethylenimine. The filter was washed with 3 ml of wash buffer (50 mM Tris pH 7.5, 5 mM MnCl2, 150 mM NaCl) three times and its radioactivity was determined by gamma counter.
As a reminder, the IC50 is the midpoint of a concentration-inhibition curve. A low value points to inhibition by little substance. `CC(=O)NC(Cc1csc2ccccc12)C(O)C=Cc1cc(C(F)(F)F)cc(C(F)(F)F)c1` (single isomer, unassigned) [2 (Isomer A), 2-Acetamido-1-(3-benzo[b]thienyl)-5-(3,5-bistrifluoromethylphenyl)-4-penten-3-ol] displayed an IC50 of 0.7 µM.

On to `CC(=O)NC(Cc1csc2ccccc12)C(O)C=Cc1cc(C(F)(F)F)cc(C(F)(F)F)c1` (single isomer, unassigned) [2 (Isomer B), 2-Acetamido-1-(3-benzo[b]thienyl)-5-(3,5-bistrifluoromethylphenyl)-4-penten-3-ol], for which the concentration for half-maximal inhibition (IC50) was 0.3 µM.

`COC(C=Cc1cc(C(F)(F)F)cc(C(F)(F)F)c1)C(Cc1csc2ccccc12)NC(C)=O` (single isomer, unassigned) [3 (Isomer B), 2-Acetamido-1-(3-benzo[b]thienyl)-5-(3,5-bistrifluoromethylphenyl)-3-methoxy-4-pentene] showed an IC50 of 0.35 µM.

On to `CC(=O)NC(Cc1csc2ccccc12)C(O)CCc1cc(C(F)(F)F)cc(C(F)(F)F)c1` (single isomer, unassigned) [5 (Isomer A), 2-Acetamido-1-(3-benzo[b]thienyl)-5-(3,5-bistrifluoromethylphenyl)-3-pentanol], for which the 50% inhibitory concentration (IC50) stood at 0.19 µM.

Regarding `CC(=O)NC(Cc1csc2ccccc12)C(O)CCc1cc(C(F)(F)F)cc(C(F)(F)F)c1` (single isomer, unassigned) [5 (Isomer B), 2-Acetamido-1-(3-benzo[b]thienyl)-5-(3,5-bistrifluoromethylphenyl)-3-pentanol], the IC50 is 0.5 µM.

Compound `COC(CCc1cc(C(F)(F)F)cc(C(F)(F)F)c1)C(Cc1csc2ccccc12)NC(C)=O` (single isomer, unassigned) [6 (Isomer A), 2-Acetamido-1-(3-benzo[b]thienyl)-5-(3,5-bistrifluoromethylphenyl)-3-methoxypentane] registered an IC50 of 0.5 µM.

In the case of `COC(CCc1cc(C(F)(F)F)cc(C(F)(F)F)c1)C(Cc1csc2ccccc12)NC(C)=O` (single isomer, unassigned) [6 (Isomer B), 2-Acetamido-1-(3-benzo[b]thienyl)-5-(3,5-bistrifluoromethylphenyl)-3-methoxypentane], the half-maximal inhibitory concentration (IC50) stood at 0.03 µM.

The compound `CC(=O)NC(Cc1csc2ccccc12)C(CCc1cc(C(F)(F)F)cc(C(F)(F)F)c1)=NO` (single isomer, unassigned) [14 (Isomer A), 2-Acetamido-1-(3-benzo[b]thienyl)-5-(3,5-bistrifluoromethylphenyl)-3-oximinopentane] yielded a concentration for half-maximal inhibition (IC50) of 0.2 µM.

In the case of `CC(=O)NC(Cc1csc2ccccc12)C(CCc1cc(C(F)(F)F)cc(C(F)(F)F)c1)=NO` (single isomer, unassigned) [14 (Isomer B), 2-Acetamido-1-(3-benzo[b]thienyl)-5-(3,5-bistrifluoromethylphenyl)-3-oximinopentane], the IC50 was 0.3 µM.

In turn, `CC(=O)NC(Cc1csc2ccccc12)C(=O)C=Cc1cc(C(F)(F)F)cc(C(F)(F)F)c1` (stereo not drawn) [Example 1, 2-Acetamido-1-(3-benzo[b]thienyl)-5-(3,5-bistrifluoromethylphenyl)-4-penten-3-one] gave a concentration for half-maximal inhibition (IC50) of 0.35 µM.

As for `CC(=O)NC(Cc1csc2ccccc12)C(=O)CCc1cc(C(F)(F)F)cc(C(F)(F)F)c1` (stereo not drawn) [Example 4, 2-Acetamido-1-(3-benzo[b]thienyl)-5-(3,5-bistrifluoromethylphenyl)-3-pentanone], the half-inhibitory concentration (IC50) was found to be 0.02 µM.

Take `CN(C)CC(=O)NC(Cc1csc2ccccc12)C(=O)CCc1cc(C(F)(F)F)cc(C(F)(F)F)c1` (stereo not drawn) [Example 9, 1-(3-Benzo[b]thienyl)-5-(3,5-bistrifluoromethylphenyl)-2-(N,N-dimethylglycinamido)-3-pentanone Hydrochloride]: the IC50 worked out at 0.03 µM.

`CC(C)(C)OC(=O)NC(Cc1c[nH]c2ccccc12)C(=O)CCc1cc(C(F)(F)F)cc(C(F)(F)F)c1` (stereo not drawn) [Example 10, 5-(3,5-Bistrifluoromethylphenyl)-2-t-butyloxycarbonylamino-1-(3-indolyl)-3-pentanone] yielded an IC50 of 0.04 µM.

Regarding `NC(Cc1c[nH]c2ccccc12)C(=O)CCc1cc(C(F)(F)F)cc(C(F)(F)F)c1` (stereo not drawn) [Example 11, 2-Amino-5-(3,5-bistrifluoromethylphenyl)-1-(3-indolyl)-3-pentanone Hydrochloride], the half-maximal inhibitory concentration (IC50) came to 0.015 µM.

For `O=C(NC(Cc1c[nH]c2ccccc12)C(=O)CCc1cc(C(F)(F)F)cc(C(F)(F)F)c1)c1ccccc1` (stereo not drawn) [Example 13, 2-Benzamido-5-(3,5-bistrifluoromethylphenyl)-1-(3-indolyl)-3-pentanone], the 50% inhibitory concentration (IC50) came out at 0.014 µM.

`CC(=O)NC(Cc1ccc(Cl)c(Cl)c1)C(=O)CCc1cc(C(F)(F)F)cc(C(F)(F)F)c1` (stereo not drawn) [Example 15, 2-Acetamido-5-(3,5-bistrifluoromethylphenyl)-1-(3,4-dichlorophenyl)-3-pentanone] yielded an IC50 of 0.04 µM.

On to `CN(C)CCCC(=O)NC(Cc1c[nH]c2ccccc12)C(=O)CCc1cc(C(F)(F)F)cc(C(F)(F)F)c1` (stereo not drawn) [Example 17, 5-(3,5-Bistrifluoromethylphenyl)-2-(4-(N,N-dimethylamino)butyramido)-1-(3-indolyl)-3-pentanone Hydrochloride], for which the IC50 is 0.0004 µM.

Take `CN(C)CCCCC(=O)NC(Cc1c[nH]c2ccccc12)C(=O)CCc1cc(C(F)(F)F)cc(C(F)(F)F)c1` (stereo not drawn) [Example 18, 5-(3,5-Bistrifluoromethylphenyl)-2-(5-(N,N-dimethylamino)pentanamido)-1-(3-indolyl)-3-pentanone]: the IC50 was found to be 0.0006 µM.

Regarding `O=C(NC(Cc1c[nH]c2ccccc12)C(=O)CCc1cc(C(F)(F)F)cc(C(F)(F)F)c1)C1CC1` (stereo not drawn) [Example 19, 5-(3,5-Bistrifluoromethylphenyl)-2-(cyclopropylcarboxamido)-1-(3-indolyl)-3-pentanone], the IC50 worked out at 0.002 µM.

Compound `CC(CC(=O)NC(Cc1c[nH]c2ccccc12)C(=O)CCc1cc(C(F)(F)F)cc(C(F)(F)F)c1)c1ccccc1` (stereo not drawn) [Example 20, 5-(3,5-Bistrifluoromethylphenyl)-2-(3-phenylbutyramido)-1-(3-indolyl)-3-pentanone] came in with a half-maximal inhibitory concentration (IC50) of 0.002 µM.

Staying with this assay, now noted: 125I-SP binding; cloned human NK1R expressed in COS or CHO; 1 hour at 4° C. or room temperature; cell prints μM in nM column.
The compound `COC(C=Cc1cc(C(F)(F)F)cc(C(F)(F)F)c1)C(Cc1csc2ccccc12)NC(C)=O` (single isomer, unassigned) [3 (Isomer A), 2-Acetamido-1-(3-benzo[b]thienyl)-5-(3,5-bistrifluoromethylphenyl)-3-methoxy-4-pentene] showed an IC50 greater than 1 µM.

Values taken from US5328927A, “Hetercyclic compounds, processes for their preparation and pharmaceutical compositions containing them” (Merck Sharpe & Dohme, Ltd., priority 1992, dated 1994).
